Laboratory results: ChEMBL document CHEMBL5543126, “Combinatorial Ubiquitination REal-time PROteolysis (CURE-PROs): A Modular Platform for Generating Reversible, Self-Assembling Bifunctional Targeted Degraders” (J Med Chem, 2024)
The source made the active and inactive calls. The calls are words filed in the database; no cut-off is given here.

What was measured:
Format in all cases: cell-based
[1] = molecular target: T1, von Hippel-Lindau disease tumor suppressor/Bromodomain-containing protein 4 (Homo sapiens, UniProt O60885+P40337); test: (§1) PROTAC activity at VHL/BRD4 in HEK293 cells assessed as induction of BRD4 degradation by measuring maximal level of degradation at 1 uM measured every 15 mins for 24 hrs in presence of BRD4 based ligand ((4S)-6-(4-chlorophenyl)-4-(2-(ethylamino)-2-oxoethyl)-1-methyl4Hbenzo[f][1,2,4]triazolo [4,3-a][1,4]diazepin-8-yl)boronic acid by HiBiT based Combinatorial Ubiquitination Real-time PROteolysis analysis
T1 sequence (P40337 whole entry, looked up, other chains not shown): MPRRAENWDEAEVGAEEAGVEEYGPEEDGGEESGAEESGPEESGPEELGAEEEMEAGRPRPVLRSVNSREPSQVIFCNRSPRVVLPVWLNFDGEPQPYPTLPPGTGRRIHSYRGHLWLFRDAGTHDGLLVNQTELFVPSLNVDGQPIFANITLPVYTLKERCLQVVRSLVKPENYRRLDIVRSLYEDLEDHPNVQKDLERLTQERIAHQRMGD

[2] = molecular target: T1, von Hippel-Lindau disease tumor suppressor/Bromodomain-containing protein 4; test: as §1, with “measuring Tmax” for “measuring maximal level of degradation”, “at 10” for “at 1”
[3] = molecular target: T1, von Hippel-Lindau disease tumor suppressor/Bromodomain-containing protein 4; test: (§2) PROTAC activity at BRD4/VHL in human MCF7 cells assessed as induction of BRD4 degradation by measuring residual activity at 10 uM incubated for 24 hrs in presence of 10 uM BRD4 based ligand ((4S)-6-(4-chlorophenyl)-4-(2-(ethylamino)-2-oxoethyl)-1-methyl4Hbenzo[f][1,2,4]triazolo [4,3-a][1,4]diazepin-8-yl)boronic acid by Western blot based Combinatorial Ubiquitination Real-time PROteolysis analysis
[4] = molecular target: T1, von Hippel-Lindau disease tumor suppressor/Bromodomain-containing protein 4; test: as §2, with “at 100 nM” for “at 10 uM”, “of 1” for “of 10”
[5] = molecular target: T1, von Hippel-Lindau disease tumor suppressor/Bromodomain-containing protein 4; test: as §2, with “reduction in” for “induction of”, “level” for “degradation by measuring residual activity at 10 uM”, “VHL” for “10 uM BRD4”
[6] = molecular target: T1, von Hippel-Lindau disease tumor suppressor/Bromodomain-containing protein 4; test: as §2, with “at 1” for “at 10”, “of 3” for “of 10”
[7] = molecular target: T1, von Hippel-Lindau disease tumor suppressor/Bromodomain-containing protein 4; test: as §2, with “30 nM” for “10 uM”, “of” for “of 10 uM”
[8] = molecular target: T1, von Hippel-Lindau disease tumor suppressor/Bromodomain-containing protein 4; test: as §2, with “3” for “10”
[9] = molecular target: T1, von Hippel-Lindau disease tumor suppressor/Bromodomain-containing protein 4; test: as §2, with “at 300 nM” for “at 10 uM”, “of 3” for “of 10”
[10] = molecular target: T1, von Hippel-Lindau disease tumor suppressor/Bromodomain-containing protein 4; test: as §2, with “at 3” for “at 10”, “of 300 nM” for “of 10 uM”
[11] = molecular target: T1, von Hippel-Lindau disease tumor suppressor/Bromodomain-containing protein 4; test: as §2, with “300 nM” for “10 uM”
[12] = molecular target: T2, Protein cereblon/Bromodomain-containing protein 4 (Homo sapiens) (UniProt O60885+Q96SW2); test: PROTAC activity at BRD4/CRBN in human HeLa cells assessed as induction of BRD4 degradation at 10 uM incubated for 24 hrs in presence of CRBN based ligand (1S,4R,5R,6S)-N-((2-(2,6-dioxopiperidin-3-yl)-1,3-dioxoisoindolin-4-yl)methyl)-5,6-dihydroxybicyclo[2.2.1]heptane-2-carboxamide by Western blot analysis based Combinatorial Ubiquitination Real-time PROteolysis analysis
T2 sequence (Q96SW2 whole entry, looked up, other chains not shown): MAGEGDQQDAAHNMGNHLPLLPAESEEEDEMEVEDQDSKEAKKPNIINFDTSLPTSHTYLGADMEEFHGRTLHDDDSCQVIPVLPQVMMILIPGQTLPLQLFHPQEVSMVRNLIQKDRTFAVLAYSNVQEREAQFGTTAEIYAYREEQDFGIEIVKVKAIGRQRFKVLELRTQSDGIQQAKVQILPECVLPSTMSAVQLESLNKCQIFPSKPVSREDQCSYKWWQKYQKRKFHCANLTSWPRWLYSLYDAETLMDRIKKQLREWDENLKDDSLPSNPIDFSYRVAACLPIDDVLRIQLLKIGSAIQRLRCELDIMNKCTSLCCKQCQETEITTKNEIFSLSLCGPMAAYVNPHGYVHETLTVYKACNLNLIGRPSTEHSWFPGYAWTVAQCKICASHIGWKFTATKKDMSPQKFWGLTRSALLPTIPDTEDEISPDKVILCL

[13] = molecular target: T1, von Hippel-Lindau disease tumor suppressor/Bromodomain-containing protein 4; test: (§3) PROTAC activity at VHL/BRD4 in HEK293 cells assessed as induction of BRD4 degradation by measuring Tmax at 0.3 uM measured every 15 mins for 24 hrs in presence of VHL based ligand (2S,4R)-1-((S)-2-(2,3-dihydroxybenzamido)-3,3-dimethylbutanoyl)-4-hydroxy-N-(4-(4-methylthiazol-5-yl)benzyl)pyrrolidine-2-carboxamide by HiBiT based Combinatorial Ubiquitination Real-time PROteolysis analysis
[14] = molecular target: T1, von Hippel-Lindau disease tumor suppressor/Bromodomain-containing protein 4; test: (§4) PROTAC activity at BRD4/VHL in human MCF7 cells assessed as induction of BRD4 degradation by measuring residual activity at 30 nM incubated for 24 hrs in presence of 1 uM VHL based ligand (2S,4R)-1-((S)-2-(2,3-dihydroxybenzamido)-3,3-dimethylbutanoyl)-4-hydroxy-N-(4-(4-methylthiazol-5-yl)benzyl)pyrrolidine-2-carboxamide by Western blot based Combinatorial Ubiquitination Real-time PROteolysis analysis
[15] = molecular target: T1, von Hippel-Lindau disease tumor suppressor/Bromodomain-containing protein 4; test: as §4, with “1 uM” for “30 nM”, “300 nM” for “1 uM”
[16] = molecular target: T1, von Hippel-Lindau disease tumor suppressor/Bromodomain-containing protein 4; test: as §4, with “1 uM” for “30 nM”, “of” for “of 1 uM”
[17] = molecular target: T1, von Hippel-Lindau disease tumor suppressor/Bromodomain-containing protein 4; test: as §2, with “at 1” for “at 10”, “of 100 nM” for “of 10 uM”
[18] = molecular target: T1, von Hippel-Lindau disease tumor suppressor/Bromodomain-containing protein 4; test: as §4, with “10 uM” for “30 nM”, “100 nM” for “1 uM”
[19] = molecular target: T1, von Hippel-Lindau disease tumor suppressor/Bromodomain-containing protein 4; test: as §4, with “300” for “30”, “100 nM” for “1 uM”
[20] = molecular target: T1, von Hippel-Lindau disease tumor suppressor/Bromodomain-containing protein 4; test: as §3, with “maximal level of degradation” for “Tmax”, “10” for “0.3”
[21] = molecular target: T1, von Hippel-Lindau disease tumor suppressor/Bromodomain-containing protein 4; test: as §4, with “at 300” for “at 30”, “of 10” for “of 1”
[22] = molecular target: T1, von Hippel-Lindau disease tumor suppressor/Bromodomain-containing protein 4; test: as §4, with “1 uM” for “30 nM”, “100 nM” for “1 uM”
[23] = molecular target: T1, von Hippel-Lindau disease tumor suppressor/Bromodomain-containing protein 4; test: as §4, with “100” for “30”, “300 nM” for “1 uM”
[24] = molecular target: T2, Protein cereblon/Bromodomain-containing protein 4 (Homo sapiens); test: PROTAC activity at BRD4/CRBN in human HeLa cells assessed as induction of BRD4 degradation at 10 uM incubated for 24 hrs in presence of CRBN based ligand N-((2-(2,6-dioxopiperidin-3-yl)-1,3-dioxoisoindolin-4-yl)methyl)-2,3-dihydroxybenzamide by Western blot analysis based Combinatorial Ubiquitination Real-time PROteolysis analysis

Cc1ncsc1-c1ccc(CNC(=O)[C@@H]2C[C@@H](O)CN2C(=O)[C@@H](NC(=O)c2cccc(O)c2O)C(C)(C)C)cc1
Emax [1]: 80%
Tmax [2]: 22.2 h
Activity [3]: 6%
Activity [4]: 101%
Activity [5]: Active
DC50 [5]: 358 nM
Activity [6]: 22%
Activity [7]: 91%
Activity [8]: 16%
Activity [9]: 37%
Activity [10]: 39%
Activity [11]: 68%

CCNC(=O)C[C@@H]1N=C(c2ccc(Cl)cc2)c2cc(B(O)O)ccc2-n2c(C)nnc21
Activity [12]: inactive
Tmax [13]: 7.75 h
Activity [14]: 96%
Activity [15]: 48%
Activity [16]: 64%
Activity [17]: 56%
Activity [18]: 55%
Activity [19]: 72%
Emax [20]: 96%
Activity [21]: 40%
Activity [22]: 56%
Activity [23]: 77%
Activity [24]: inactive
